Source: patent US8927715B2, “Inhibitors of 11β-hydroxysteroid dehydrogenase type 1” (Vitae Pharmaceuticals, Inc., priority 2006, dated 2015)

Molecular target: human 11β-HSD1 (Homo sapiens, UniProt P28845)
Assay: Inhibition of a microsomal preparation of 11β-HSD1, SPA (Biological Test Example 2)
Assay type: biochemical
Set-up: expressed in transfected cells; host or cells: CHO cells (microsomes)
Details: read-out: Biological Test Example 2 (IC50 class)
Experimental: All reactions are carried out at room temperature in 96 well clear flexible PET Microbeta plates (PerkinElmer). […] After a 10 minute pre-incubation, 50 μL of enzyme solution containing microsomes isolated from CHO cells overexpressing human 11β-HSD1 (10-20 μg/ml of total protein) is added, and the plates are then incubated for 90 minutes at room temperature. The reaction is stopped by adding 50 μl of the SPA beads suspension containing […] 18β-glycyrrhetinic acid, 5 mg/ml protein A coated YSi SPA beads (GE Healthcare) and 3.3 μg/ml of anti-cortisol antibody (East Coast Biologics) in Superblock buffer (Bio-Rad). The plates are then shaken for 120 minutes at room temperature, and the SPA signal corresponding to [^3H]cortisol is measured on a Microbeta plate reader.

human 11β-HSD1, sequence (P28845 whole entry): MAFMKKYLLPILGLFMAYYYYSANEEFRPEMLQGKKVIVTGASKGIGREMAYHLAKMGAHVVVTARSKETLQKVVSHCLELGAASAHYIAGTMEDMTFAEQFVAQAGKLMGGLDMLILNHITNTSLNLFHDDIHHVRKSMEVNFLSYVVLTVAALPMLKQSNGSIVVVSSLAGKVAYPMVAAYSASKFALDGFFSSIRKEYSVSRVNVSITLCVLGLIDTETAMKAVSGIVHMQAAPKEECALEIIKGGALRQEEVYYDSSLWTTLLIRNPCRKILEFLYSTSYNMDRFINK

SMILES | IC50
O=C(O)CC1CC2(CCN(C(=O)OC3C4CC5CC3CC(C(=O)NCc3ccccc3)(C5)C4)CC2)c2ccccc21 (stereo not shown) [Example 89, 2-(1′-((1-(Benzylcarbamoyl)-4-adamantyloxy)carbonyl)-2,3-dihydrospiro[indene-1,4′-piperidine]-3-yl)acetic acid] | 50 to 1000 nM
CC(C)(CC(=O)O)CC(=O)N1Cc2ccccc2C2(CCN(C(=O)NC3C4CC5CC(C4)CC3C5)CC2)C1 (stereo not shown) [Example 98, 5-(1′-(2-Adamantylcarbamoyl)-1H-spiro[isoquinoline-4,4′-piperidine]-2(3H)-yl)-3,3-dimethyl-5-oxopentanoic acid] | 50 to 1000 nM
O=C(O)C1CC1C(=O)N1Cc2ccccc2C2(CCN(C(=O)NC3C4CC5CC(C4)CC3C5)CC2)C1 [Example 99, (1S,2R)-2-(1′42-Adamantylcarbamoyl)-2,3-dihydro-1H-spiro[isoquinoline-4,4′-piperidine]-2-ylcarbonyl)cyclopropanecaxboxylic acid] | 50 to 1000 nM
CN1C(C)(C)c2cccc(Cl)c2C12CCN(C(=O)NC1C3CC4CC(C3)CC1C4)CC2 (stereo not shown) [Example 105, 7-Chloro-N-(2-adamantyl)-2,3,3-trimethylspiro[isoindoline-1,4′-piperidine]-1′-carboxamide] | < 50 nM
COC(=O)CCS(=O)(=O)N1Cc2ccccc2C2(CCN(C(=O)NC3C4CC5CC(C4)CC3C5)CC2)C1 (stereo not shown) [Example 106, Methyl 3-(1′-(2-adamantylcarbamoyl)-1-H-spiro[isoquinoline-4,4′-piperidine]-2(3H)-ylsulfonyl)propanoate] | < 50 nM
COC(=O)CCS(=O)(=O)N1Cc2ccccc2C2(CCN(C(=O)OC3C4CC5CC(C4)CC3C5)CC2)C1 (stereo not shown) [Example 107, 2-Adamantyl 2-(3-methoxy-3-oxopropylsulfonyl)-2,3-dihydro-1H-spiro[isoquinoline-4,4′-piperidine]-1′-carboxylate] | < 50 nM
O=C(O)CCS(=O)(=O)N1Cc2ccccc2C2(CCN(C(=O)NC3C4CC5CC(C4)CC3C5)CC2)C1 (stereo not shown) [Example 108, 3-(1′-(2-Adamantylcarbamoyl)-1H-spiro[isoquinoline-4,4′-piperidine]-2(3H)-ylsulfonyl)propanoic acid] | < 50 nM
O=C(CC1CC2(CCN(C(=O)NC3C4CC5CC(C4)CC3C5)CC2)c2c(Br)cccc21)N1CCNCC1 (stereo not shown) [Example 110, 7-Bromo-N-(2-adamantyl)-3-(2-oxo-2-(piperazin-1-yl)ethyl)-2,3-dihydrospiro[indene-1,4′-piperidine]-1′-carboxamide] | < 50 nM
O=C(CC1CC2(CCN(C(=O)NC3C4CC5CC(C4)CC3C5)CC2)c2c(Br)cccc21)N1CCOCC1 (stereo not shown) [Example 111, 7-Bromo-N-(2-adamantyl)-3-(2-morpholino-2-oxoethyl)-2,3-dihydrospiro[indene-1,4′-piperidine]-1′-carboxamide] | < 50 nM
CN1CCN(C(=O)CC2CC3(CCN(C(=O)NC4C5CC6CC(C5)CC4C6)CC3)c3c(Br)cccc32)CC1 (stereo not shown) [Example 112, 7-Bromo-N-(2-adamantyl)-3-(2-(4-methylpiperazin-1-yl)-2-oxoethyl)-2,3-dihydrospiro[indene-1,4′-piperidine]-1′-carboxamide] | < 50 nM
CN(C)CCCC(=O)N1Cc2ccccc2C2(CCN(C(=O)NC3C4CC5CC(C4)CC3C5)CC2)C1 (stereo not shown) [Example 113, N-(2-Adamantyl)-2-(4-(dimethylamino)butanoyl)-2,3-dihydro-1H-spiro[isoquinoline-4,4′-piperidine]-1′-carboxamide] | < 50 nM

Now from value to compound:

IC50 | SMILES
< 50 nM | O=C(NC1C2CC3CC(C2)CC1C3)N1CCC2(CC1)OCc1ccccc12 (stereo not shown) [Example 83, N-(2-Adamantyl)-3H-spiro[isobenzofuran-1,4′-piperidine]-1′-carboxamide]
< 50 nM | CC(C)(C)OC(=O)N1CC2(CCN(C(=O)OC3C4CC5CC3CC(C(N)=O)(C5)C4)CC2)c2ccccc21 (stereo not drawn) [Example 85, 1-Tert-butyl 1′-(trans-1-carbamoyl-4-adamantyl)spiro[indoline-3,4′-piperidine]-1,1′-dicarboxylate]
< 50 nM | CN1Cc2ccccc2C12CCN(C(=O)NC1C3CC4CC(C3)CC1C4)CC2 (stereo not shown) [Example 86, N-(2-Adamantyl)-2-methylspiro[isoindoline-1,4′-piperidine]-1′-carboxamide]
< 50 nM | O=C(NC1C2CC3CC(C2)CC1C3)N1CCC2(CC1)NCc1ccccc12 (stereo not shown) [Example 87, N-(2-Adamantyl)spiro[isoindoline-1,4′-piperidine]-1′-carboxamide]
< 50 nM | CN1Cc2cccc(Cl)c2C12CCN(C(=O)NC1C3CC4CC(C3)CC1C4)CC2 (stereo not shown) [Example 88, 7-Chloro-N-(2-adamantyl)-2-methylspiro[isoindoline-1,4′-piperidine]-1′-carboxamide]
< 50 nM | O=C(O)CCC(=O)N1CC2(CCN(C(=O)NC3C4CC5CC(C4)CC3C5)CC2)c2ccccc21 (stereo not shown) [Example 90, 4-(1′-(2-Adamantylcarbamoyl)spiro[indoline-3,4′-piperidine]-1-yl)-4-oxobutanoic acid]
< 50 nM | O=C(O)/C=C/C(=O)N1Cc2ccccc2C2(CCN(C(=O)NC3C4CC5CC(C4)CC3C5)CC2)C1 (stereo not shown) [Example 91, (E)-4-(1′-(2-Adamantylcarbamoyl)-1H-spiro[isoquinoline-4,4′-piperidine]-2(3H)-yl)-4-oxobut-2-enoic acid]
< 50 nM | O=C(O)CCC(=O)N1Cc2ccccc2C2(CCN(C(=O)NC3C4CC5CC(C4)CC3C5)CC2)C1 (stereo not shown) [Example 92, 4-(1′-(2-Adamantylcarbamoyl)-1H-spiro[isoquinoline-4,4′-piperidine]-2(3H)-yl)-4-oxobutanoic acid]
< 50 nM | O=C(O)CCCC(=O)N1CC2(CCN(C(=O)NC3C4CC5CC(C4)CC3C5)CC2)c2ccccc21 (stereo not shown) [Example 93, 5-(1′-(2-Adamantylcarbamoyl)spiro[indoline-3,4′-piperidine]-1-yl)-5-oxopentanoic acid]
< 50 nM | CC(C)(CC(=O)O)CC(=O)N1CC2(CCN(C(=O)NC3C4CC5CC(C4)CC3C5)CC2)c2ccccc21 (stereo not shown) [Example 96, 5-(1′-(2-Adamantylcarbamoyl)spiro[indoline-3,4′-piperidine]-1-yl)-3,3-dim ethyl-5-oxopentanoic acid]
< 50 nM | CC(C)(CC(=O)N1Cc2ccccc2C2(CCN(C(=O)NC3C4CC5CC(C4)CC3C5)CC2)C1)C(=O)O (stereo not shown) [Example 97, 4-(1′-(2-Adamantylcarbamoyl)-1H-spiro[isoquinoline-4,4′-piperidine]-2(3H)-yl)-2,2-dimethyl-4-oxobutanoic acid]
< 50 nM | C=CCC1OC2(CCN(C(=O)NC3C4CC5CC(C4)CC3C5)CC2)c2c(Cl)cccc21 (stereo not shown) [Example 102, 3-Allyl-7-chloro-N-(2-adamantyl)-3H-spiro[isobenzofuran-1,4′-piperidine]-1′-carboxamide]
< 50 nM | CN1C(C)(C)c2ccccc2C12CCN(C(=O)NC1C3CC4CC(C3)CC1C4)CC2 (stereo not shown) [Example 103, N-(2-Adamantyl)-2,3,3-trimethylspiro[isoindoline-1,4′-piperidine]-1′-carboxamide]
< 50 nM | CC1(C)NC2(CCN(C(=O)NC3C4CC5CC(C4)CC3C5)CC2)c2c(Cl)cccc21 (stereo not shown) [Example 104, 7-Chloro-N-(2-adamantyl)-3,3-dimethylspiro[isoindoline-1,4′-piperidine]-1′-carboxamide]
